Results: patent publication US20250276955A1, “CORONAVIRUS MAIN PROTEASE INHIBITORS AND METHODS USING SAME” (Baylor College of Medicine, priority 2021, published 2025)
Converted amounts (≈) assume the structure as drawn. “Also recorded” adds a separate entry of the source. Read-outs that look alike come from different tables or passages of the source.

Key:
SARS-COV-2 M^pro-His6 = SARS-COV-2 M^pro-His6 (Severe acute respiratory syndrome coronavirus 2, UniProt P0DTD1); assay: biochemical; assay type: biochemical; conditions: 25 nM enzyme, 15 μM fluorescent peptide, Morrison equation; Inactive = less than 50% inhibition at 25 μM compound; read-out: M^pro-His Ki
[1] = target: SARS-COV-2 M^pro (authentic N- and C-termini) (Severe acute respiratory syndrome coronavirus 2, UniProt P0DTD1); assay: biochemical; assay type: biochemical
[2] = target: SARS-CoV-2 main protease (M^pro) (Severe acute respiratory syndrome coronavirus 2, UniProt P0DTD1); assay: Protein thermal shift stability assay (SYPRO Orange); assay type: binding
HOVPro-Gi.1 = target: T1, HOVPro-Gi.1 (Norovirus, UniProt Q83883); assay: Thermal shift, HOVPro-Gi.1; assay type: binding
T1 construct: HOVPro-Gi.1

HOVPro-Gii.4 = assay: Thermal shift, HOVPro-Gii.4; assay type: binding
human thrombin = target: T2, human thrombin (Homo sapiens, UniProt P00734); assay: Thrombin fluorescence assay; assay type: biochemical; conditions: fluorescence assay
T2 construct: purchased Sigma-Aldrich MAK243

Human Cathepsin B = target: T3, Human Cathepsin B (Homo sapiens, UniProt P07858); assay: Cathepsin B assay; assay type: biochemical
T3 construct: purchased BPS Bioscience 79590
Description: (§1) A kit from BPS Bioscience (#79590) was used with adjustments to the manufacturer's protocol as follows: The activated enzyme was diluted 250-fold just before use, and the reaction was run at RT in black 96 half-area plates in a total reaction volume of 50 uL containing 0.01% Tween-20. Instead of measuring endpoints at 60 min the increase in fluorescence (Ex 360 nm, Em 460 nm) per second (RFU/s) was obtained from linear progress curves over 10 min. Fractional activities were calculated from reactions with no inhibitors. E-64 was used as a positive control.

renin = target: T4, renin (Homo sapiens, UniProt P00797); assay: Renin assay; assay type: biochemical; conditions: read-out: estimated Kiapp, renin
T4 construct: purchased BPS Bioscience 80211
T4 sequence (P00797 67-406): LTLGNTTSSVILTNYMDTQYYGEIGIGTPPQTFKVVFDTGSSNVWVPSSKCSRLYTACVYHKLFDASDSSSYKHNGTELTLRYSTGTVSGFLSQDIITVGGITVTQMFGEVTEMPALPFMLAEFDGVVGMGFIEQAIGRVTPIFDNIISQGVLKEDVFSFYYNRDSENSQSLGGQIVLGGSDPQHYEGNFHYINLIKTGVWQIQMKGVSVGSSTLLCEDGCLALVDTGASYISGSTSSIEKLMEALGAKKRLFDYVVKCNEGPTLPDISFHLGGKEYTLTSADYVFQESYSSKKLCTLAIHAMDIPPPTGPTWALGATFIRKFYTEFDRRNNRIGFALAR
Description: as §1, with “(#80211)” for “(#79590)”, “The” for “The activated enzyme was diluted 250-fold just before use, and the”, “30” for “60”, “490” for “360”, “520” for “460”, “Aliskiren” for “E-64”

[3] = Metabolic stability in human liver microsomes; assay type: in vitro ADME
Outline: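 Mouse or human liver microsomal incubations sampled in duplicate at 0, 30 and 60 min, quenched with equal volume ice-cold methanol. Supernatant analysed by UHPLC-Orbitrap MS, C18 column at 40° C, positive ESI, m/z 80–1,200.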

[4] = Plasma stability assay, human plasma; assay type: in vitro ADME; conditions: 10 μM, 37° C., after 2 h incubation
Description: (§2) Compound CDD-1713 and CDD-1976 were incubated in human and mouse plasma respectively at a concentration of 10 μM in duplicate (n=2) at 37° C. At time-points of 0, 30, 60 and 120 min, 15 μL of sample were taken out and the reactions terminated by adding 75 μL of ice-cold methanol. The reaction mixtures were then vortexed for 30 sec and centrifuged at rcf 15,000 for 15 min. Following centrifugation, 3 μL of the supernatant was analyzed using UHPLC-Q Exactive Orbitrap MS. The percentage of test compound remaining at the individual time points relative to the 0 min sample was then determined.

[5] = Plasma stability assay, mouse plasma; assay type: in vitro ADME; conditions: 10 μM, 37° C., after 2 h incubation
Description: as §2

[6] = test system: SARS-COV-2 (USA_WA1/2020 isolate) in VERO E6 cells; assay: Real-Time Cell Analysis (RTCA) assay of SARS-COV-2 replication; assay type: cell-based; conditions: VERO E6 cells, 75 h
293T = 293T relative cell viability; conditions: day 3, 10 μM
HepG2 cells = assay: HepG2 cytotoxicity assay (XTT)
[7] = Apparent solubility in PBS buffer; conditions: PBS buffer with 2% DMSO, aqueous buffer, kinetic from dmso stock

T1 sequence (Q83883 1101-1281): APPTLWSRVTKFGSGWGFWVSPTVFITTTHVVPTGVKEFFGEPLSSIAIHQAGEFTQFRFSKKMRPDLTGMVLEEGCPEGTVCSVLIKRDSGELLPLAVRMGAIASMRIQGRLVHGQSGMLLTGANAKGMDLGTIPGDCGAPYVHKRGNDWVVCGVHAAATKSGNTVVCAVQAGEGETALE

COc1cc(-c2cccc3[nH]ncc23)cc(C=O)c1OCC(=O)N(C)C [CDD-1713, 2-(2-formyl-4-(1H-indazol-4-yl)-6-methoxyphenoxy)-N,N-dimethylacetamide]
Ki (SARS-COV-2 M^pro-His6): 44.8 ± 2.9 nM | Ki ([1]; 25 nM enzyme, 15 μM fluorescent peptide, Morrison equation, Inactive = less than 50% inhibition at 25 μM compound, read-out: M^pro Ki): 64.8 ± 4.9 nM | Ki ([1]; Morrison equation, read-out: apparent Ki against M^pro): 64.8 nM | Ki ([1]; Table 5, read-out: Ki,app): 64.8 nM | Ki ([1]; read-out: Ki, app towards SARS-CoV-2 M^pro, athentic termini, authentic termini): 64.8 nM | stabilization of M^pro in thermal shift assay (in words) [2]: stabilized; also recorded: concentration-dependent stabilization | ΔTm of Mpro at 50 μM compound conc. ([2]; 50 μM compound, […]): 2.99 °C | ΔTm of HOVPro-Gi.1 at 50 μM compound conc. (HOVPro-Gi.1): −0.09 °C | ΔTm of HOVPro-Gii.4 at 50 μM compound conc. (HOVPro-Gii.4): −0.73 °C | Thrombin inhibition (human thrombin): None | thrombin inhibition (in words) (human thrombin): No inhibition | Human Cathepsin B, Fractional Remaining Activity (Human Cathepsin B): 0.97 | Ki (renin): 53000 nM | HLM t1/2 ([3]; Table 4): 15.3 min | microsomal CLint at 2 μM ([3]; human, liver microsomes): 90.6 µL/min/mg | metabolic stability in human liver microsomes (in words) ([3]; human, microsomes): metabolically labile | compound remaining in human plasma [4]: 80% | compound remaining in mouse plasma [5]: 80% | IC50 ([6]; Severe acute respiratory syndrome coronavirus 2, Vero C1008, read-out: IC50, inhibition of SARS-COV-2 induced cell death (RTCA)): 5190 nM | prevention of SARS-COV-2 induced cell death (in words) [6]: reduced cell death in a dose-dependent manner | 293T day 3 relative cell viability (% inhibition at 10 μM) (293T): None | cytotoxicity in HepG2 cells (in words) (HepG2 cells; 100 μM): no obvious cytotoxicity | IC50 (HepG2 cells; Homo sapiens, HepG2, 24 h, read-out: HepG2 cell viability IC50): > 100000 nM | solubility [7]: 157 µM (≈ 55.4 µg/mL)
